From paper PMC8718758, “Using Unnatural Protein Fusions to Engineer a Coenzyme Self-Sufficiency System for D-Phenyllactic Acid Biosynthesis in Escherichia coli” (Frontiers in Bioengineering and Biotechnology, 2021) come the findings set out here.

For this assay, the target named is T1, LfD-LDH (Limosilactobacillus fermentum, UniProt A0ABF7R291).
T1 construct: gene LAF_0632; gene cloned BamHI/XhoI in pET28a, expressed in E. coli BL21(DE3) (strain CP101); gene primers only in supplement
The assay is described as follows: enzymatic conversion of phenylpyruvate to D-phenyllactic acid. Format: biochemical. Particulars: co-substrate phenylpyruvate, pH 7, 35 °C; paper says only D-LDH here, LfD-LDH inferred; enzyme purity not described.

T1 sequence (A0ABF7R291 1-332): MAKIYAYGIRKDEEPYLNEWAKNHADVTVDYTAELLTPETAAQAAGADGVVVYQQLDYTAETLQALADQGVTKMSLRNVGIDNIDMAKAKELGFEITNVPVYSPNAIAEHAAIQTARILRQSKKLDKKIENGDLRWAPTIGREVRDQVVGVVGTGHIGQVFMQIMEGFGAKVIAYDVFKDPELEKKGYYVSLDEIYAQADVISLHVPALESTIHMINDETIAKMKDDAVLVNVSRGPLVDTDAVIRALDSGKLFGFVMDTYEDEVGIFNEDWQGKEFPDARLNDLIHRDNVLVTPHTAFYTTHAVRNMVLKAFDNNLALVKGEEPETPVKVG

As for `NC(=O)C1=CN([C@@H]2O[C@H](COP(=O)(O)OP(=O)(O)OC[C@H]3O[C@@H](n4cnc5c(N)ncnc54)[C@H](O)[C@@H]3O)[C@@H](O)[C@H]2O)C=CC1` [NADH], the “enzymatic conversion of phenylpyruvate to D-phenyllactic acid” value is recorded as “NADH-dependent D-LDH must rely on NADH to catalyze the conversion of PPA to D-PLA”.
